# Data taken from US20090291938A1 (TAKEDA PHARMACEUTICAL COMPANY LIMITED, priority 2007, published 2009).
# System: HT29 human colorectal adenocarcinoma cell line
# Test: cell proliferation assay (Cell Titer-Glo luminescent cell viability assay)
# Format: cell-based
# Details: HT-29, 72 h, read-out: pIC50 (converted)
# How it was run: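 Cells grown in DMEM with 10% FBS and exposed to compounds for 72 h. Viability read by CellTiter-Glo luminescence, expressed as percentage of DMSO-treated cells.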
row,Compound,IC50 [nM]
1,"COc1cc(C(=O)NC2CCN(C)CC2)ccc1Nc1ncc2c(n1)N(C1CCCC1)CC(C)(C)C(=O)N2C [Compound 86, 4-(9-cyclopentyl-5,7,7-trimethyl-6-oxo-6,7,8,9-tetrahydro-5H-pyrimido[4,5-b][1,4]diazepin-2-ylamino)-3-methoxy-N-(1-methylpiperidin-4-yl)benzamide]",3.16 to 10
2,"COc1cc(C(=O)NC2CCN(C)CC2)ccc1Nc1ncc2c(n1)N(C1CCCC1)CC1(CCC1)C(=O)N2C [Compound 179, 4-(9′-Cyclopentyl-5′-methyl-6′-oxo-5′,6′,8′,9′-tetrahydrospiro[cyclobutane-1,7′-pyrimido[4,5-b][1,4]diazepine]-2′-ylamino)-3-methoxy-N-(1-methylpiperidin-4-yl)benzamide]",< 1

# Same assay, conditions: HT-29, cell proliferative assay, HT29 cells, 72 hr treatment, values given as ranges, read-out: pIC50 (converted)
row,Compound,IC50 [nM]
1,"CC[C@@]1(C)CN(C2CCCCC2)c2nc(Nc3ccc(C(=O)N[C@@H]4CCCNC4)cc3OC)ncc2N(C)C1=O [Compound 148, 4-((S)-9-cyclohexyl-7-ethyl-5,7-dimethyl-6-oxo-6,7,8,9-tetrahydro-5H-pyrimido[4,5-b][1,4]diazepin-2-ylamino)-3-methoxy-N-((R)-piperidin-3-yl)benzamide]",3.16 to 10
2,"COc1cc(C(=O)NC2CCNCC2)ccc1Nc1ncc2c(n1)N(C1CCCC1)CCC(=O)N2C [Compound 56, 4-(9-cyclopentyl-5-methyl-6-oxo-6,7,8,9-tetrahydro-5H-pyrimido[4,5-b][1,4]diazepin-2-ylamino)-3-methoxy-N-(piperidin-4-yl)benzamide]",> 10
3,"COc1cc(C(=O)N[C@@H]2CCCN(C)C2)ccc1Nc1ncc2c(n1)N(C1CCCC1)CCC(=O)N2C [Compound 53, (R)-4-(9-cyclopentyl-5-methyl-6-oxo-6,7,8,9-tetrahydro-5H-pyrimido[4,5-b][1,4]diazepin-2-ylamino)-3-methoxy-N-(1-methylpiperidin-3-yl)benzamide]",> 10
4,"C=CC[C@H]1CN(C2CCCC2)c2nc(Nc3ccc(C(=O)NN4CCN(C)CC4)cc3OC)ncc2N(C)C1=O [Compound 206, (S)-4-(7-allyl-9-cyclopentyl-5-methyl-6-oxo-6,7,8,9-tetrahydro-5H-pyrimido[4,5-b][1,4]diazepin-2-ylamino)-3-methoxy-N-(4-methylpiperazin-1-yl)benzamide]",< 1
5,"COc1cc(C(=O)NC2CNC2)ccc1Nc1ncc2c(n1)N(C1CCCCC1)CC(C)(C)C(=O)N2C [Compound 118, N-(azetidin-3-yl)-4-(9-cyclohexyl-5,7,7-trimethyl-6-oxo-6,7,8,9-tetrahydro-5H-pyrimido[4,5-b][1,4]diazepin-2-ylamino)-3-methoxybenzamide]",3.16 to 10
6,"COc1cc(C(=O)N[C@H]2CCCNC2)ccc1Nc1ncc2c(n1)N(C1CCCC1)CCC(=O)N2C [Compound 50, (S)-4-(9-cyclopentyl-5-methyl-6-oxo-6,7,8,9-tetrahydro-5H-pyrimido[4,5-b][1,4]diazepin-2-ylamino)-3-methoxy-N-(piperidin-3-yl)benzamide]",> 10
7,"COc1cc(C(=O)NN2CCN(C)CC2)ccc1Nc1ncc2c(n1)N(C1CCCC1)CC1(CCC1)C(=O)N2C [Compound 180, 4-(9′-cyclopentyl-5′-methyl-6′-oxo-5′,6′,8′,9′-tetrahydrospiro[cyclobutane-1,7′-pyrimido[4,5-b][1,4]diazepine]-2′-ylamino)-3-methoxy-N-(4-methylpiperazin-1-yl)benzamide]",< 1
8,"COc1cc(C(=O)NC2CCN(C(C)=O)CC2)ccc1Nc1ncc2c(n1)N(C1CCCC1)CCC(=O)N2C [Compound 39, N-(1-acetylpiperidin-4-yl)-4-(9-cyclopentyl-5-methyl-6-oxo-6,7,8,9-tetrahydro-5H-pyrimido[4,5-b][1,4]diazepin-2-ylamino)-3-methoxybenzamide]",1 to 2.51
9,"COc1cc(C(=O)N[C@@H]2CCCNC2)ccc1Nc1ncc2c(n1)N(C1CCCCC1)CC1(CC1)C(=O)N2C [Compound 175, (R)-4-(9′-cyclohexyl-5′-methyl-6′-oxo-5′,6′,8′,9′-tetrahydrospiro [cyclopropane-1,7′-pyrimido[4,5-b][1,4]diazepine]-2′-ylamino)-3-methoxy-N-(piperidin-3-yl)benzamide]",< 1
10,"COc1cc(C(=O)NC2CCCNCC2)ccc1Nc1ncc2c(n1)N(C1CCCCC1)CC(C)(C)C(=O)N2C (stereo not drawn) [Compound 119, N-(azepan-4-yl)-4-(9-cyclohexyl-5,7,7-trimethyl-6-oxo-6,7,8,9-tetrahydro-5H-pyrimido[4,5-b][1,4]diazepin-2-ylamino)-3-methoxybenzamide]",3.16 to 10
11,"CC[C@@]1(C)CN(C2CCCC2)c2nc(Nc3ccc(C(=O)N[C@@H]4CCCNC4)cc3OC)ncc2N(C)C1=O [Compound 134, 4-((S)-9-cyclopentyl-7-ethyl-5,7-dimethyl-6-oxo-6,7,8,9-tetrahydro-5H-pyrimido[4,5-b][1,4]diazepin-2-ylamino)-3-methoxy-N-((R)-piperidin-3-yl)benzamide]",3.16 to 10
12,"CCC#CCC1CN(C2CCCC2)c2nc(Nc3ccc(C(=O)NC4CCN(C)CC4)cc3OC)ncc2N(C)C1=O (stereo not drawn) [Compound 219, 4-(9-cyclopentyl-5-methyl-6-oxo-7-(pent-2-ynyl)-6,7,8,9-tetrahydro-5H-pyrimido[4,5-b][1,4]diazepin-2-ylamino)-3-methoxy-N-(1-methylpiperidin-4-yl)benzamide]",3.16 to 10
13,"COc1cc(C(=O)N[C@H]2CCN(C)C2)ccc1Nc1ncc2c(n1)N(C1CCCC1)CCC(=O)N2C [Compound 52, (S)-4-(9-cyclopentyl-5-methyl-6-oxo-6,7,8,9-tetrahydro-5H-pyrimido[4,5-b][1,4]diazepin-2-ylamino)-3-methoxy-N-(1-methylpyrrolidin-3-yl)benzamide]",> 10
14,"C=CC1(C)CN(C2CCCC2)c2nc(Nc3ccc(C(=O)NC4CCN(C)CC4)cc3OC)ncc2N(C)C1=O (stereo not drawn) [Compound 239, 4-(9-cyclopentyl-5,7-dimethyl-6-oxo-7-vinyl-6,7,8,9-tetrahydro-5H-pyrimido[4,5-b][1,4]diazepin-2-ylamino)-3-methoxy-N-(1-methylpiperidin-4-yl)benzamide]",3.16 to 10
15,"C=C(F)CC1CN(C2CCCC2)c2nc(Nc3ccc(C(=O)NC4CCN(C)CC4)cc3OC)ncc2N(C)C1=O (stereo not drawn) [Compound 231, 4-(9-cyclopentyl-7-(2-fluoroallyl)-5-methyl-6-oxo-6,7,8,9-tetrahydro-5H-pyrimido[4,5-b][1,4]diazepin-2-ylamino)-3-methoxy-N-(1-methylpiperidin-4-yl)benzamide]",> 10
16,"COc1cc(C(=O)NC2CCN(C)CC2)ccc1Nc1ncc2c(n1)N(C1CCCCC1)CC(C1CC1)C(=O)N2C (stereo not drawn) [Compound 156, 4-(9-cyclohexyl-7-cyclopropyl-5-methyl-6-oxo-6,7,8,9-tetrahydro-5H-pyrimido[4,5-b][1,4]diazepin-2-ylamino)-3-methoxy-N-(1-methylpiperidin-4-yl)benzamide]",> 10
17,"COc1cc(C(=O)NC2CCOCC2)ccc1Nc1ncc2c(n1)N(C1CCCC1)CCC(=O)N2C [Compound 42, 4-(9-cyclopentyl-5-methyl-6-oxo-6,7,8,9-tetrahydro-5H-pyrimido[4,5-b][1,4]diazepin-2-ylamino)-3-methoxy-N-(tetrahydro-2H-pyran-4-yl)benzamide]",3.16 to 10
18,"COc1cc(C(=O)NCC2CCNCC2)ccc1Nc1ncc2c(n1)N(C1CCCC1)CCC(=O)N2C [Compound 60, 4-(9-cyclopentyl-5-methyl-6-oxo-6,7,8,9-tetrahydro-5H-pyrimido[4,5-b][1,4]diazepin-2-ylamino)-3-methoxy-N-(piperidin-4-ylmethyl)benzamide]",> 10
19,"COc1cc(C(=O)NCCN2CCCC2)ccc1Nc1ncc2c(n1)N(C1CCCC1)CCC(=O)N2C [Compound 57, 4-(9-cyclopentyl-5-methyl-6-oxo-6,7,8,9-tetrahydro-5H-pyrimido[4,5-b][1,4]diazepin-2-ylamino)-3-methoxy-N-(2-(pyrrolidin-1-yl)ethyl)benzamide]",> 10
20,"C=CCC1CN(C2CCCCC2)c2nc(Nc3ccc(C(=O)N[C@H]4CCNC4)cc3OC)ncc2N(C)C1=O (stereo partly drawn) [Compound 194, 4-(7-allyl-9-cyclohexyl-5-methyl-6-oxo-6,7,8,9-tetrahydro-5H-pyrimido[4,5-b][1,4]diazepin-2-ylamino)-3-methoxy-N-((S)-pyrrolidin-3-yl)benzamide]",< 1
21,"COc1cc(C(=O)N[C@@H]2CCNC2)ccc1Nc1ncc2c(n1)N(C1CCCC1)CCC(=O)N2C [Compound 41, (R)-4-(9-cyclopentyl-5-methyl-6-oxo-6,7,8,9-tetrahydro-5H-pyrimido[4,5-b][1,4]diazepin-2-ylamino)-3-methoxy-N-(pyrrolidin-3-yl)benzamide]",> 10
22,"COc1cc(C(=O)N[C@H]2CCC(=O)NC2)ccc1Nc1ncc2c(n1)N(C1CCCC1)CCC(=O)N2C [Compound 48, (S)-4-(9-cyclopentyl-5-methyl-6-oxo-6,7,8,9-tetrahydro-5H-pyrimido[4,5-b][1,4]diazepin-2-ylamino)-3-methoxy-N-(6-oxopiperidin-3-yl)benzamide]",> 10
23,"COc1cc(C(=O)NN2CCN(C3CCCC3)CC2)ccc1Nc1ncc2c(n1)N(C1CCCCC1)CC(C)(C)C(=O)N2C [Compound 117, 4-(9-cyclohexyl-5,7,7-trimethyl-6-oxo-6,7,8,9-tetrahydro-5H-pyrimido[4,5-b][1,4]diazepin-2-ylamino)-N-(4-cyclopentylpiperazin-1-yl)-3-methoxybenzamide]",3.16 to 10
24,"CC[C@@]1(C)CN(C2CCCC2)c2nc(Nc3ccc(C(=O)NN4CCN(C)CC4)cc3OC)ncc2N(C)C1=O [Compound 133, (S)-4-(9-cyclopentyl-7-ethyl-5,7-dimethyl-6-oxo-6,7,8,9-tetrahydro-5H-pyrimido[4,5-b][1,4]diazepin-2-ylamino)-3-methoxy-N-(4-methylpiperazin-1-yl)benzamide]",> 10
25,"COc1cc(C(=O)N[C@H]2CCNC2)ccc1Nc1ncc2c(n1)N(C1CCCC1)CCC(=O)N2C [Compound 40, (S)-4-(9-cyclopentyl-5-methyl-6-oxo-6,7,8,9-tetrahydro-5H-pyrimido[4,5-b][1,4]diazepin-2-ylamino)-3-methoxy-N-(pyrrolidin-3yl)benzamide]",> 10
